The values that follow come from patent US20230141034A1, “ADAMANTANE-1-CARBONYL THIOUREA, AS P2X RECEPTOR ANTAGONIST” (COMSATS UNIVERSITY ISLAMABAD, priority 2021, published 2023).

Where two headings read alike, the source gives them in different places.

For data set [1], the target named is T1, h-P2X2 (Homo sapiens, UniProt Q9UBL9).
T1 sequence (Q9UBL9 1-471): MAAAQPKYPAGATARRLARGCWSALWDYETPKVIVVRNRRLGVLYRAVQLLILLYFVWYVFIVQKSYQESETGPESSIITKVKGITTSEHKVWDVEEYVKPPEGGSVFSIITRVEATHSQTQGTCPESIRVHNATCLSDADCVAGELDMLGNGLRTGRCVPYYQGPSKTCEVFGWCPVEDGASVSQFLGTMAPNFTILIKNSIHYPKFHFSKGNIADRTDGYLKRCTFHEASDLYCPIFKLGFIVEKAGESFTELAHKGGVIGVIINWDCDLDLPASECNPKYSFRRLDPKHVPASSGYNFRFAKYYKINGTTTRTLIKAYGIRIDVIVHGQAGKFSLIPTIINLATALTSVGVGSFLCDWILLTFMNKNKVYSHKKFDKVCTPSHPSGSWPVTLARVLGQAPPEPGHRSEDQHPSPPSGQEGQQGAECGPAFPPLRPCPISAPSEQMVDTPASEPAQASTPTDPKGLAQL
Nature of the data set: Ca2+ flux assay h-P2X2. As to conditions: for inhibition at 50 µM: read-out: h-P2X2 % Inhibition; for IC50: read-out: h-P2X2 IC50 ± SEM, Ca2+ flux, n = 3. For orientation: Calcium assays in cells follow changes in intracellular calcium, usually with a dye or a luminescent sensor.
Method: (§4) Compounds were initially analyzed at a final concentration of about 50 μM and percentage of inhibition was calculated.
(§5) Calcium Mobilization Assay to Measure P2X Receptors Response Cell Culture: P2X receptors functions can be analyzed from ATP-induced increase in cytosolic Ca^2+ concentration. Two Ca^2+ chelating dyes, Fura-2 AM and Fluo-4 AM can be used to determine the intracellular Ca^2+ concentration through a fluorescent imaging micro-titer plate reader (BMG Labtech: FLUOstar Galaxy®). Non-transfected human 1321N1 astrocytoma cells, as well as P2X receptors transfected human 1321N1 astrocytoma cells will be cultured in T-75 cm^2 cell culture flask having appropriate cell culture growth media; Dulbecco's Modified Eagle's medium (DMEM) supplemented with 10% fetal bovine serum (FBS), 75 μg/mL of Hygromycin B or human P2X receptors transfected cell lines and 1% pen-strep (antibiotics). Cells will be incubated at 37° C. in 5% CO2 incubator until 80 to 90% cell confluency will be achieved. Cells will be maintained in an exponential growth phase throughout the experiment and closely monitored for contamination.
Measurement of Ca^2+ Flux
(§6) When 1321N1 cells will reach 80 to 90% of confluency, cells will be harvested from T-75 cm^2 flask by trypsinization. After washing the cells with phosphate buffer saline (PBS), cells will be seeded at a density of 20,000 cells/well in black, clear bottom, poly-D-lysine coated 96 well plate. After 16 to 24 h, cell culture media will be removed and add Hank's balanced salt solution (HBSS) containing 3 μM Ca^2+ chelating dyes Fura-2 AM or Fluo-4 AM. After 1 h of incubation at 23° C., the loading dye solution will be removed, and added seven to eight dilutions of test compounds in triplicate format. ATP (at a concentration value of EC80) or buffer will be added and measured the excitation and emission at 340/520 nm and 380/520 nm through FLUOStar Galaxy®. Assay volume for the experiment will be 200 μL. IC50 and EC50 values will be calculated by PRISM 5.0 (GrapgPad, San Diego, Calif., USA) through non-linear regression analysis.

In data set [2] the target is T2, h-P2X4 (Homo sapiens, UniProt Q99571).
T2 sequence (Q99571 1-388): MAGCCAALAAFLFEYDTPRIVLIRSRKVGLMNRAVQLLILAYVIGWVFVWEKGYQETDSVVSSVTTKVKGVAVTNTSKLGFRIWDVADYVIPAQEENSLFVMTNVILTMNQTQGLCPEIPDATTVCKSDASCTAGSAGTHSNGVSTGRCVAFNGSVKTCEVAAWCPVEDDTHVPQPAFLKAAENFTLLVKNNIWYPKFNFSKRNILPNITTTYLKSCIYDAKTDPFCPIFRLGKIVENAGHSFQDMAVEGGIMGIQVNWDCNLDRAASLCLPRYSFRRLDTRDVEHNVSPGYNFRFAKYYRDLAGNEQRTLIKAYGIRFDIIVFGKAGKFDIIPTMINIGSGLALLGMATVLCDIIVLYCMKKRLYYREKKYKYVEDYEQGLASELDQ
Nature of the data set: Ca2+ flux assay h-P2X4. As to conditions: for inhibition at 50 µM: read-out: h-P2X4 % Inhibition.
Method: as §4, §5
Measurement of Ca^2+ Flux
as §6

A short description of data set [3]: MTT cytotoxicity assay, human 1321N1 astrocytoma cell line. The conditions noted are these: human, 1321N1 astrocytoma cells, final concentration of 50 μM. It counts as cell-based. Here is the method: (§1) Cellular safety profiling of adamantane thioureas were done through MTT assay. All compounds were analyzed for toxicity at final concentration of 50 μM. […] Toxicity was determined against two cancer cell lines including human 1321N1 Astrocytoma cell line, HeLa cell line and a normal HEK-293 cell line.
(§2) c. Cell Viability Assay (MTT Assay)
(§3) After 24 h of incubation at 37° C. in CO2 incubator, culture media will be replaced with serum-free media along with test compounds and re-incubate. After 24 h, media will be removed and add 100 μL of MTT reagent (0.5-5 mg/mL) and will be incubated for a further 4 h, at 37° C. Absorbance will be measured at 570 and 630 nm to calculate cell viability.

The target in data set [4] is T3, h-P2X7 (Homo sapiens, UniProt Q99572).
T3 sequence (Q99572 1-595): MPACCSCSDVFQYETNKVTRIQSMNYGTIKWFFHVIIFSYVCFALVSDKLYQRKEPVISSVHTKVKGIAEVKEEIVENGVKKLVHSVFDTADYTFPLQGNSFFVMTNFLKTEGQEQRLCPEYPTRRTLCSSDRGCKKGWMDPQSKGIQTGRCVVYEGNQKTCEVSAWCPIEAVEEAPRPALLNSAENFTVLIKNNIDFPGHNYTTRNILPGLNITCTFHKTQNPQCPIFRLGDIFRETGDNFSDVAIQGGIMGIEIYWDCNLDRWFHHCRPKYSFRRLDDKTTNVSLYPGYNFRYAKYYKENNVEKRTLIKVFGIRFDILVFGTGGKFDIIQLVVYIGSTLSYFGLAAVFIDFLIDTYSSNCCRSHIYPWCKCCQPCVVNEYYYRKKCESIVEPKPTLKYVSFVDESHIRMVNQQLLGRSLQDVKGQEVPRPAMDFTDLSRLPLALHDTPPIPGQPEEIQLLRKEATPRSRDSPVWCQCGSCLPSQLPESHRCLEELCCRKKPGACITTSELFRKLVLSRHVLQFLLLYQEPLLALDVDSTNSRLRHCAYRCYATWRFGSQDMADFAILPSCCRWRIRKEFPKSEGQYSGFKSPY
The experiment in a line: Ca2+ flux assay h-P2X7. The conditions noted are these: for inhibition at 50 µM: read-out: h-P2X7 % Inhibition.
Method: as §4, §5
Measurement of Ca^2+ Flux
as §6

Data set [5] in a line: MTT cytotoxicity assay, HeLa cell line. It is filed as cell-based. As to conditions: human, HeLa cells, final concentration of 50 μM. The protocol: as §1, §2, §3
Background: Tetrazolium assays rely on reduction of a dye to a coloured formazan, in cell work by metabolically active cells.

A short description of data set [6]: MTT cytotoxicity assay, HEK-293 cell line. It is filed as cell-based. The conditions noted are these: human, HEK-293 cells, final concentration of 50 μM. The protocol: as §1, §2, §3
The target of data set [7] is h-P2X5 (Homo sapiens, UniProt Q93086). Nature of the data set: Ca2+ flux assay h-P2X5. As to conditions: for inhibition at 50 µM: read-out: h-P2X5 % Inhibition.
Sequence of h-P2X5 (Q93086 whole entry): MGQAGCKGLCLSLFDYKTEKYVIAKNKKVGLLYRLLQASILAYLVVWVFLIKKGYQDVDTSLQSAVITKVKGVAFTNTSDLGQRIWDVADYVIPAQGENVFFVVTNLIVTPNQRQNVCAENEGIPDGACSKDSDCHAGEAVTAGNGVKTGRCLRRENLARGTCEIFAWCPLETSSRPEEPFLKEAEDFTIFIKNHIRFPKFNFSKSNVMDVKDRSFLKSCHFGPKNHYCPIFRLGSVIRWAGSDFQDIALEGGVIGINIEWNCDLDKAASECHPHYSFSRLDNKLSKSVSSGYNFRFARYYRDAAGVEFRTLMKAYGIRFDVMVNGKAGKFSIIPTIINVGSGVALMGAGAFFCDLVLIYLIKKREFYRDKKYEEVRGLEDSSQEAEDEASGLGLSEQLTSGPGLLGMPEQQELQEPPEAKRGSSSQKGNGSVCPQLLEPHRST
Method: as §4, §5
Measurement of Ca^2+ Flux
as §6
[8] abbreviates: read-out: h-P2X4 IC50 ± SEM, Ca2+ flux, n = 3.
Where [9] appears, read: read-out: h-P2X7 IC50 ± SEM, Ca2+ flux, n = 3.

With `O=C(NC(=S)Nc1cc(Br)c(O)c(C(F)(F)F)c1)C12CC3CC(CC(C3)C1)C2` [Ie, N-((3-bromo-4-hydroxy-5-(trifluoromethyl)phenyl)carbamothioyl)adamantane-1-carboxamide], the inhibition (as a rule, the percentage by which the read-out fell short of the control) at 50 µM in data set [1] was 30.5%; in data set [7], 20.4%. The results for the IC50 in data set [2] and in data set [4] were 4.53 ± 0.39 µM and 4.02 ± 0.64 µM, respectively. Moreover, the cytotoxicity at 24 h, 50 µM in data set [3] stood at 5.37%; in data set [5], 11.9%; in data set [6] it was 6.85%.

For `Cc1cc(Br)ccc1NC(=S)NC(=O)C12CC3CC(CC(C3)C1)C2` [In, N-((4-bromo-2-methylphenyl)carbamothioyl)adamantane-1-carboxamide], the inhibition at 50 µM in data set [1] was 22.7%; in data set [2], 34.9%; in data set [4] it was 18.8%; in data set [7] it was 27.1%. Besides, the cytotoxicity at 24 h, 50 µM came out at 14.3% in data set [3], 4.1% in data set [5] and 14% in data set [6].

Consider `O=C(NC(=S)Nc1cc([N+](=O)[O-])ccc1Cl)C12CC3CC(CC(C3)C1)C2` [Ih, N-((2-chloro-5-nitrophenyl)carbamothioyl)adamantane-1-carboxamide], for which the values for the concentration for half-maximal inhibition (IC50) in data set [1], in data set [2] (setting [8]) and in data set [4] (setting [9]) were 4.58 ± 0.21 µM, 1.29 ± 0.09 µM and 2.53 ± 0.72 µM, respectively. Also, the cytotoxicity at 24 h, 50 µM was found to be 20.5% in data set [3], 8.66% in data set [5] and 24.6% in data set [6]. In addition, the inhibition at 50 µM in data set [7] stood at 32.1%.

As for `CN(C)CCCNC(=S)NC(=O)C12CC3CC(CC(C3)C1)C2` [Ir, N-((3-(dimethylamino)propyl)carbamothioyl)adamantane-1-carboxamide], the inhibition at 50 µM in data set [1] came out at 2.15%; in data set [2], 0%; in data set [4] it was 5.01%; in data set [7], 11.2%. For the same molecule, the cytotoxicity at 24 h, 50 µM stood at 10.1% in data set [3], 8.14% in data set [5] and 5.16% in data set [6].

For `O=C(NC(=S)Nc1ccc(O)cc1)C12CC3CC(CC(C3)C1)C2` [Ic, N-((4-hydroxyphenyl)carbamothioyl)adamantane-1-carboxamide], the inhibition at 50 µM in data set [1] came out at 37.9%; in data set [2], 32.4%; in data set [7] it was 33.2%. Also, the values for the cytotoxicity at 24 h, 50 µM in data set [3], in data set [5] and in data set [6] were 19%, 8.66% and 3.02%, respectively. In addition, in data set [4] (setting [9]), the half-maximal inhibitory concentration (IC50) (usually the point on the concentration scale where inhibition reaches its midpoint) was 1.4 ± 0.18 µM.

With `O=C(NC(=S)Nc1cc(Cl)c(O)c(Cl)c1)C12CC3CC(CC(C3)C1)C2` [Id, N-((3,5-dichloro-4-hydroxyphenyl)carbamothioyl)adamantane-1-carboxamide], the IC50 stood at 1.06 ± 0.05 µM in data set [1], 1.28 ± 0.11 µM in data set [2] (setting [8]) and 3.4 ± 0.4 µM in data set [7]. Moreover, the cytotoxicity at 24 h, 50 µM in data set [3] came out at 6.18%; in data set [5], 5.4%; in data set [6] it was 1.06%.

As to `O=C(NC(=S)Nc1cccc(O)c1)C12CC3CC(CC(C3)C1)C2` [Ib, N-((3-hydroxyphenyl)carbamothioyl)adamantane-1-carboxamide], the inhibition at 50 µM in data set [1] came out at 32.6%; in data set [2], 36.7%; in data set [4], 19.1%; in data set [7] it was 43.6%. Besides, the cytotoxicity at 24 h, 50 µM was 5.67% in data set [3], 11% in data set [5] and 6.95% in data set [6].

Turning to `Cc1ccc(C(=O)Nc2ccc(S(=O)(=O)O)c3cc(S(=O)(=O)O)cc(S(=O)(=O)O)c23)cc1NC(=O)c1cccc(NC(=O)Nc2cccc(C(=O)Nc3cc(C(=O)Nc4ccc(S(=O)(=O)O)c5cc(S(=O)(=O)O)cc(S(=O)(=O)O)c45)ccc3C)c2)c1` [Suramin, reference compound], the half-inhibitory concentration (IC50) amounted to 13.45 ± 0.11 µM in data set [1]; 5.64 ± 0.04 µM in data set [2] (setting [8]); 16.1 ± 0.5 µM in data set [7] (read-out: h-P2X5 IC50 ± SEM, Ca2+ flux, n = 3). Besides, the cytotoxicity at 24 h, 50 µM amounted to 18.6% in data set [3], 21.7% in data set [5] and 48% in data set [6].
